Experimental data taken from patent publication USRE47739E1, “2-(pyridin-2-ylamino)-pyrido[2,3-D]pyrimidin-7-ones” (Warner-Lambert Company LLC, priority 2002, dated 2019).

How the values were obtained:
[1] = test system: neointima formation; settings: rats; cited from earlier work
[2] = biological target: Cdk2/Cyclin A (Homo sapiens, UniProt P24941); experiment: Assay for Inhibition of Cdk2/Cyclin A; format: biochemical; settings: 12 mM ATP (so in the source), retinoblastoma protein substrate, 25° C., 15 minutes
Method: (§1) The assays were carried out as described below.
Assay for Inhibition of Cdk2/Cyclin A
Cdk2 enzyme assays for IC50 determinations and kinetic evaluation are performed as follows. 96-well filter plates (Millipore MADVN6550) are used. […] All components except the ATP are added to the wells, and the plate is placed on a plate mixer for 2 minutes. The reaction is initiated by addition of [^32P]ATP, and the plate is incubated at 25° C. for 15 minutes. The reaction is terminated by addition of 0.1 mL 20% TCA. The plate is kept at 4° C. for at least 1 hour to allow the substrate to precipitate. The wells are then washed five times with 0.2 mL 10% TCA, and ^32P incorporation is determined with a beta plate counter (Wallac Inc., Gaithersburg, Md.).

[3] = biological target: Cdk4/Cyclin D (Homo sapiens, UniProt P11802); experiment: Assay for Inhibition of Cdk4/Cyclin D; format: biochemical; settings: 25 μM ATP, retinoblastoma protein substrate, 25° C., 15 minutes
Sequence of Cdk4/Cyclin D (P11802 whole entry, species assumed): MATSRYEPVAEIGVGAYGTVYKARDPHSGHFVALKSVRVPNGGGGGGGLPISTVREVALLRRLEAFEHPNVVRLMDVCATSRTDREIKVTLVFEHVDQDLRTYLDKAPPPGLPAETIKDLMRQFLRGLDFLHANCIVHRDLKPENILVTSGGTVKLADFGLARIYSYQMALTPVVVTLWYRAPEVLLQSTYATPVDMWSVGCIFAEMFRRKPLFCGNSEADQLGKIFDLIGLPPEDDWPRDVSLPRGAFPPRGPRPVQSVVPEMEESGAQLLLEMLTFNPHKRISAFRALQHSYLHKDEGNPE
Sequence of Cdk4/Cyclin D (P24385 whole entry partner, species assumed): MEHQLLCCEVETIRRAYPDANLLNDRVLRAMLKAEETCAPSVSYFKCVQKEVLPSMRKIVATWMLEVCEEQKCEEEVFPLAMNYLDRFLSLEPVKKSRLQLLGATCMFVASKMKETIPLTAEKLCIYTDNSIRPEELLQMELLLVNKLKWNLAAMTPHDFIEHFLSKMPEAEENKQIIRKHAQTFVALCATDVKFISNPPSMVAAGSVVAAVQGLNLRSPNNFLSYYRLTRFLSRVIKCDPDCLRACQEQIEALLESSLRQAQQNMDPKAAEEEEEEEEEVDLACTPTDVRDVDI
Method: as §1
Assay for Inhibition of Cdk4/Cyclin D
The Cdk4 enzyme assay for IC50 determination and kinetic evaluation is performed as follows. 96-well filter plates (Millipore MADVN6550) are used. […] Buffer A containing excess EDTA was used to determine the level of background ^32P in the absence of enzyme activity. All components except the ATP are added to the wells, and the plate is placed on a plate mixer for 2 minutes. The reaction is started by adding [^32P]ATP, and the plate is incubated at 25° C. for 15 minutes. The reaction is terminated by addition of 0.1 mL 20% trichloroacetic acid (TCA). The plate is kept at 4° C. for at least 1 hour to allow the substrate to precipitate. The wells are then washed five times with 0.2 mL 10% TCA, and ^32P incorporation is determined with a beta plate counter (Wallac Inc., Gaithersburg, Md.).

[4] = biological target: FGF receptor (FGFr) tyrosine kinase (Homo sapiens, UniProt P11362); experiment: Assay for Inhibition of FGFr; format: biochemical; settings: 50 μM ATP, Poly (4:1) glutamate-tyrosine substrate, 25° C.
Sequence of FGF receptor (FGFr) tyrosine kinase (P11362 22-822): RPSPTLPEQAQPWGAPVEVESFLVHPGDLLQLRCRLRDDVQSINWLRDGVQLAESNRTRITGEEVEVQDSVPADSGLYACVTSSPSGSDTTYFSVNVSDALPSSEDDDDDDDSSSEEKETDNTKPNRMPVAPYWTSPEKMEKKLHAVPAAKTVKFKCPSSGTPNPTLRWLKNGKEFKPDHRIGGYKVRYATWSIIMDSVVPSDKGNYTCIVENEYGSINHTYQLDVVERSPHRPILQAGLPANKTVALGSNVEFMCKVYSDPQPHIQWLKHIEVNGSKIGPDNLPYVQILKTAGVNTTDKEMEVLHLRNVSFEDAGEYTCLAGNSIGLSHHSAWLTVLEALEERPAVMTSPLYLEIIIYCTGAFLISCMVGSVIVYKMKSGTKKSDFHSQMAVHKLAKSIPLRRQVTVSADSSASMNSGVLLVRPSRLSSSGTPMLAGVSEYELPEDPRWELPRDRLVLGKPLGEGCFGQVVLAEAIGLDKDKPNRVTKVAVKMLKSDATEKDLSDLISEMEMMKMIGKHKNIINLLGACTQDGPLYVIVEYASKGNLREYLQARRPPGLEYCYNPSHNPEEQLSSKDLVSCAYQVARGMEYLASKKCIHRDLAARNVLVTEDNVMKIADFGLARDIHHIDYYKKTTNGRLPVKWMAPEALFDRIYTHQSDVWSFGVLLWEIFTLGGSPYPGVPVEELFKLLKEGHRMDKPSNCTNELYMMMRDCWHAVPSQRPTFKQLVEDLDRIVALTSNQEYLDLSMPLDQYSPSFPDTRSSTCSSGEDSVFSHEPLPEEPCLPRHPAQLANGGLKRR
Method: as §1
Assay for Inhibition of FGFr
For FGF receptor (FGFr) tyrosine kinase assays 96-well plates (100 μL/incubation/well), and conditions are optimized to measure the incorporation of ^32P from [γ^32P]ATP into a glutamate-tyrosine co-polymer substrate. Briefly, to each well is added 82.5 μL incubation buffer B (25 mM Hepes (pH 7.0), 150 mM NaCl, 0.1% Triton X-100, 0.2 mM PMSF, 0.2 mM Na3VO4, 10 mM MnCl2) and 750 μg/mL Poly (4:1) glutamate-tyrosine followed by 2.5 μL of the test compound in buffer B and 5 μL of a 7.5 μg/μL FGFr solution to initiate the reaction. Following a 10-minute incubation at 25° C., […] [γ^32P]ATP (0.4 μCi plus 50 μM ATP) is added to each well, and samples are incubated for an additional 10 minutes at 25° C. The reaction is terminated by the addition of 100 μL 30% trichloroacetic acid (TCA) containing 20 mM sodium pyrophosphate and precipitation of material onto glass fiber mats (Wallac). […] Nonspecific activity is defined as radioactivity retained on the filters following incubation of samples with buffer alone (no enzyme). Specific enzymatic activity (enzyme plus buffer) is defined as total activity minus nonspecific activity.

SMILES	inhibition of neointima formation [1]	melting point [°C]	IC50 [2] [µM]	IC50 [3] [nM]	IC50 [4] [µM]
COc1ccc(CNc2nc(N(CCO)CCO)nc3c2ncn3C(C)C)cc1 [CVT-313]	greater than 80%	–	–	–	–
Cc1c(I)c(=O)n(C2CCCC2)c2nc(Nc3ccc(N4CCNCC4)cn3)ncc12 [Example 50, 8-Cyclopentyl-6-iodo-5-methyl-2-(5-piperazin-1-yl-pyridin-2-ylamino)-8H-pyrido[2,3-d]pyrimidin-7-one]	–	> 240	> 5	145	> 5
